Experimental data from PubChem BioAssay (NCI).
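The compound was tested at five concentrations on cells cultured in 96-well plates, with a 48-hour exposure period. Definition used: TGI = concentration required for complete inhibition of growth.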

Assays:
Experiment in all cases: growth of human tumour cells (NCI), 48 h
[1] = test system: MDA-N
[2] = test system: KM12 colon
[3] = test system: OVCAR-4 ovarian
[4] = test system: CAKI-1 renal
[5] = test system: ACHN renal
[6] = test system: M14 melanoma
[7] = test system: MDA-MB-435
[8] = test system: NCI-H460 lung
[9] = test system: SR leukemia
[10] = test system: SW-620 colon
[11] = test system: A549 NSCLC
[12] = test system: TK-10 renal
[13] = test system: HS 578T breast
[14] = test system: UACC-62 melanoma
[15] = test system: MALME-3M melanoma
[16] = test system: 786-0 renal
[17] = test system: HT29 colon
[18] = test system: UACC-257 melanoma
[19] = test system: SK-MEL-28 melanoma

COC(=O)c1c(C(=O)OC)c2c3ccccc3n(C)c2c2c1c1ccccc1n2C
TGI [1]: > 100 µM | TGI [2]: > 100 µM | TGI [3]: > 100 µM | TGI [4]: > 100 µM | TGI [5]: > 100 µM | TGI [6]: > 100 µM | TGI [7]: > 100 µM | TGI [8]: > 100 µM | TGI [9]: > 100 µM | TGI [10]: > 100 µM | TGI [11]: > 100 µM | TGI [12]: > 100 µM | TGI [13]: > 100 µM | TGI [14]: > 100 µM | TGI [15]: > 100 µM | TGI [16]: > 100 µM | TGI [17]: > 100 µM | TGI [18]: > 100 µM | TGI [19]: > 100 µM

CCN(CC)C(=S)SS(=O)(=O)c1ccccc1[N+](=O)[O-]
TGI [1]: > 66.6 µM | TGI [2]: > 50 µM | TGI [3]: > 83.3 µM | TGI [4]: 54.9 µM | TGI [5]: > 78.4 µM | TGI [6]: > 48.5 µM | TGI [7]: 53.9 µM | TGI [8]: > 100 µM | TGI [9]: > 42.6 µM | TGI [10]: > 53.7 µM | TGI [11]: > 100 µM | TGI [12]: > 90.3 µM | TGI [13]: > 88.7 µM | TGI [14]: > 100 µM | TGI [15]: 22.2 µM | TGI [16]: 33.2 µM | TGI [17]: 50.4 µM | TGI [18]: > 60.6 µM | TGI [19]: 49.9 µM

O=C1C(Cl)C(c2cc3cc(Br)ccc3nc2Cl)N1c1c(Cl)cccc1Cl (centres undefined)
TGI [1]: > 25 µM | TGI [2]: > 25 µM | TGI [3]: 11.4 µM | TGI [4]: > 25 µM | TGI [5]: > 25 µM | TGI [6]: > 25 µM | TGI [7]: > 25 µM | TGI [8]: > 25 µM | TGI [9]: 10.7 µM | TGI [10]: > 25 µM | TGI [11]: > 25 µM | TGI [12]: > 25 µM | TGI [13]: > 25 µM | TGI [14]: > 25 µM | TGI [15]: > 25 µM | TGI [16]: > 25 µM | TGI [17]: > 25 µM | TGI [18]: > 25 µM | TGI [19]: > 25 µM

CCN(CC)COC(=S)S
TGI [1]: > 100 µM | TGI [2]: > 100 µM | TGI [3]: > 100 µM | TGI [4]: > 100 µM | TGI [5]: > 100 µM | TGI [6]: > 100 µM | TGI [7]: > 100 µM | TGI [8]: > 100 µM | TGI [9]: 25.9 µM | TGI [10]: 78.1 µM | TGI [11]: > 100 µM | TGI [12]: > 100 µM | TGI [13]: > 100 µM | TGI [14]: > 100 µM | TGI [15]: > 100 µM | TGI [16]: > 100 µM | TGI [17]: > 100 µM | TGI [18]: > 76.3 µM | TGI [19]: > 100 µM

Cn1c(=O)oc2cc(Br)ccc21
TGI [1]: > 100 µM | TGI [2]: > 100 µM | TGI [3]: > 100 µM | TGI [4]: > 100 µM | TGI [5]: > 100 µM | TGI [6]: > 100 µM | TGI [7]: > 100 µM | TGI [8]: > 100 µM | TGI [9]: > 100 µM | TGI [10]: > 100 µM | TGI [11]: > 100 µM | TGI [12]: > 100 µM | TGI [13]: > 100 µM | TGI [14]: > 100 µM | TGI [15]: > 100 µM | TGI [16]: > 100 µM | TGI [17]: > 100 µM | TGI [18]: > 100 µM | TGI [19]: > 100 µM

Cc1ccc(-c2cc(-c3c(C)nn(C)c(=O)c3N)[nH]n2)cc1
TGI [1]: > 100 µM | TGI [2]: > 100 µM | TGI [3]: > 100 µM | TGI [4]: > 100 µM | TGI [5]: > 100 µM | TGI [6]: > 100 µM | TGI [7]: > 100 µM | TGI [8]: > 100 µM | TGI [9]: > 100 µM | TGI [10]: > 100 µM | TGI [11]: > 100 µM | TGI [12]: > 100 µM | TGI [13]: > 100 µM | TGI [14]: > 100 µM | TGI [15]: > 100 µM | TGI [16]: > 100 µM | TGI [17]: > 100 µM | TGI [18]: > 100 µM | TGI [19]: > 100 µM

O=c1[nH]c(=O)n(C/C=C/CBr)nc1Br
TGI [1]: 27.5 µM | TGI [2]: 28.8 µM | TGI [3]: 22.9 µM | TGI [4]: 24.9 µM | TGI [5]: 25.8 µM | TGI [6]: 27.6 µM | TGI [7]: 27.2 µM | TGI [8]: 37 µM | TGI [9]: 14.1 µM | TGI [10]: 29.5 µM | TGI [11]: 30.8 µM | TGI [12]: 31.7 µM | TGI [13]: 53.8 µM | TGI [14]: 27.3 µM | TGI [15]: 27.5 µM | TGI [16]: 26.3 µM | TGI [17]: 26.1 µM | TGI [18]: 24.9 µM | TGI [19]: 28.2 µM

COc1ncnc2c1cnn2Cc1cn(CCCCO)nn1
TGI [1]: > 100 µM | TGI [2]: > 100 µM | TGI [3]: > 100 µM | TGI [4]: > 100 µM | TGI [5]: > 100 µM | TGI [6]: > 100 µM | TGI [7]: > 100 µM | TGI [8]: > 100 µM | TGI [9]: > 100 µM | TGI [10]: > 100 µM | TGI [11]: > 100 µM | TGI [12]: > 100 µM | TGI [13]: > 100 µM | TGI [14]: > 100 µM | TGI [15]: > 100 µM | TGI [16]: > 100 µM | TGI [17]: > 100 µM | TGI [18]: > 100 µM | TGI [19]: > 100 µM

O=C1NC(S(=O)(=O)O)=NNC12c1ccccc1-c1ccccc12
TGI [1]: > 10 µM | TGI [2]: > 10 µM | TGI [3]: > 10 µM | TGI [4]: > 10 µM | TGI [5]: > 10 µM | TGI [6]: > 10 µM | TGI [7]: > 10 µM | TGI [8]: > 10 µM | TGI [9]: > 10 µM | TGI [10]: > 10 µM | TGI [11]: > 10 µM | TGI [12]: > 10 µM | TGI [13]: > 10 µM | TGI [14]: > 10 µM | TGI [15]: > 10 µM | TGI [16]: > 10 µM | TGI [17]: > 10 µM | TGI [18]: > 10 µM | TGI [19]: > 10 µM

Oc1cc(CN2COc3ccccc32)c(O)cc1CNC1CCCCC1
TGI [1]: 32.2 µM | TGI [2]: > 100 µM | TGI [3]: 52.2 µM | TGI [4]: 67.5 µM | TGI [5]: 78.5 µM | TGI [6]: > 100 µM | TGI [7]: 60.1 µM | TGI [8]: 32.3 µM | TGI [9]: 49.7 µM | TGI [10]: > 100 µM | TGI [11]: > 100 µM | TGI [12]: 38 µM | TGI [13]: > 100 µM | TGI [14]: 55.1 µM | TGI [15]: 38.2 µM | TGI [16]: 34 µM | TGI [17]: 52.3 µM | TGI [18]: 30.6 µM | TGI [19]: 45 µM

CC(=O)Oc1c2oc3cc(O)c(O)cc3c2c(OC(C)=O)c2oc3cc(O)c(O)cc3c12
TGI [1]: > 100 µM | TGI [2]: 44.4 µM | TGI [3]: 62.3 µM | TGI [4]: 97.2 µM | TGI [5]: 74.8 µM | TGI [6]: > 100 µM | TGI [7]: 3.81 µM | TGI [8]: 32.7 µM | TGI [9]: > 100 µM | TGI [10]: > 100 µM | TGI [11]: > 100 µM | TGI [12]: 32.9 µM | TGI [13]: 36.4 µM | TGI [14]: 40.2 µM | TGI [15]: > 100 µM | TGI [16]: > 100 µM | TGI [17]: 70.9 µM | TGI [18]: 38.8 µM | TGI [19]: 41.5 µM
